Data as given in PubChem BioAssay AID248 (DTP/NCI, 2004).
Values joined by “and” are separate entries in the source; they are usually repeats but may differ in a detail not shown here. Identical values can stand only once. Inconclusive results and toxic doses are left out. No stated cut-off is given here; in the data, active means T/C of 150% or more; inactive means T/C below 125%.

Test system: L1210 leukemia ip in BDF1 mice, survival T/C
Assay: NCI In Vivo Anticancer Drug Screen. Data for tumor model L1210 Leukemia (intraperitoneal) in B6D2F1 (BDF1) mice
Details: endpoint: mean survival time, higher = longer survival
Summary of the method: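 Each compound was tested against a transplantable tumor grown in mice. The endpoint was survival, with treated animals benchmarked against vehicle controls as a simple ratio.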

[1] = dose: 100.0 mg/kg/injection, schedule: Q04DX003 (ip), vehicle: saline with Tween-80
[2] = dose: 200.0 mg/kg/injection, schedule: Q04DX003 (ip), vehicle: saline with Tween-80
[3] = dose: 400.0 mg/kg/injection, schedule: Q04DX003 (ip), vehicle: saline with Tween-80
[4] = dose: 100.0 mg/kg/injection, schedule: Q04DX003 (ip), vehicle: saline
[5] = dose: 200.0 mg/kg/injection, schedule: Q04DX003 (ip), vehicle: saline
[6] = dose: 400.0 mg/kg/injection, schedule: Q04DX003 (ip), vehicle: saline
[7] = dose: 100.0 mg/kg/injection, schedule: Q01DX001 (ip), vehicle: carboxymethylcellulose (CMC)
[8] = dose: 100.0 mg/kg/injection, schedule: Q04DX003 (ip), vehicle: Klucel (hydroxypropylcellulose) (HPC)
[9] = dose: 200.0 mg/kg/injection, schedule: Q01DX001 (ip), vehicle: carboxymethylcellulose (CMC)
[10] = dose: 400.0 mg/kg/injection, schedule: Q04DX002 (ip), vehicle: saline with Tween-80
[11] = dose: 100.0 mg/kg/injection, schedule: Q01DX001 (ip), vehicle: Klucel (hydroxypropylcellulose) (HPC)
[12] = dose: 200.0 mg/kg/injection, schedule: Q01DX001 (ip), vehicle: Klucel (hydroxypropylcellulose) (HPC)
[13] = dose: 200.0 mg/kg/injection, schedule: Q04DX003 (ip), vehicle: Klucel (hydroxypropylcellulose) (HPC)
[14] = dose: 400.0 mg/kg/injection, schedule: Q01DX001 (ip), vehicle: Klucel (hydroxypropylcellulose) (HPC)
[15] = dose: 400.0 mg/kg/injection, schedule: Q04DX003 (ip), vehicle: Klucel (hydroxypropylcellulose) (HPC)
[16] = dose: 50.0 mg/kg/injection, schedule: Q01DX001 (ip), vehicle: carboxymethylcellulose (CMC)
[17] = dose: 400.0 mg/kg/injection, schedule: Q01DX001 (ip), vehicle: carboxymethylcellulose (CMC)
[18] = dose: 100.0 mg/kg/injection, schedule: Q04DX002 (ip), vehicle: saline
[19] = dose: 200.0 mg/kg/injection, schedule: Q04DX002 (ip), vehicle: saline
[20] = dose: 400.0 mg/kg/injection, schedule: Q04DX002 (ip), vehicle: saline
[21] = dose: 100.0 mg/kg/injection, schedule: Q01DX009 (ip), vehicle: Klucel (hydroxypropylcellulose) (HPC)
[22] = dose: 200.0 mg/kg/injection, schedule: Q01DX009 (ip), vehicle: Klucel (hydroxypropylcellulose) (HPC)

Measured: T/C

COCCNc1ccc(NCCOC)c2c1C(=O)c1ccccc1C2=O
inactive: dose: 87.5 mg/kg/injection, schedule: Q04DX003 (ip), vehicle: Klucel (hydroxypropylcellulose) (HPC) 91 % of control | dose: 175.0 mg/kg/injection, schedule: Q04DX003 (ip), vehicle: Klucel (hydroxypropylcellulose) (HPC) 91 % of control | dose: 350.0 mg/kg/injection, schedule: Q04DX003 (ip), vehicle: Klucel (hydroxypropylcellulose) (HPC) 88 % of control

NC(=O)C(NC(=O)c1ccc([N+](=O)[O-])cc1)SCc1ccccc1 (stereo unspecified)
inactive: dose: 100.0 mg/kg/injection, schedule: Q04DX002 (ip), vehicle: gum acacia 96 % of control | dose: 200.0 mg/kg/injection, schedule: Q04DX002 (ip), vehicle: gum acacia 90 % of control | dose: 400.0 mg/kg/injection, schedule: Q04DX002 (ip), vehicle: gum acacia 86 % of control

COc1ccc(NC(=O)N2CCOCC2)cc1OC
inactive: [1] 102 % of control | [2] 96 % of control | [3] 89 % of control

CO/[N+]([O-])=C\C(=O)N/C=C/C(=O)O
inactive: dose: 13.3 mg/kg/injection, schedule: Q01DX Z (ip), vehicle: carboxymethylcellulose (CMC) 93 % of control | dose: 20.0 mg/kg/injection, schedule: Q01DX Z (ip), vehicle: carboxymethylcellulose (CMC) 101 % of control

Cc1c(Cl)cccc1NS(=O)(=O)c1cccc([N+](=O)[O-])c1
inactive: dose: 100.0 mg/kg/injection, schedule: Q01DX009 (ip), vehicle: saline with Tween-80 90 % of control | dose: 200.0 mg/kg/injection, schedule: Q01DX009 (ip), vehicle: saline with Tween-80 87 % of control

Cc1[nH]c(=O)[nH]c(=O)c1N(CCO)CCF
inactive: [4] 98 % of control | [5] 101 % of control | [6] 97 % of control

O=C(O)c1cc(S(=O)(=O)Cl)ccc1Cl
inactive: dose: 50.0 mg/kg/injection, schedule: Q04DX003 (ip), vehicle: Klucel (hydroxypropylcellulose) (HPC) 105 % of control | [7] 95 % of control | [8] 92 % of control | [9] 104 % of control

CC(C)c1nc2c(n1Cc1ccccc1)C=C(C(=O)c1ccccc1)S(=O)(=O)C(C(=O)c1ccccc1)=C2
inactive: dose: 25.0 mg/kg/injection, schedule: Q04DX003 (ip), vehicle: saline with Tween-80 107 % of control and 86 % of control | dose: 50.0 mg/kg/injection, schedule: Q01DX001 (ip), vehicle: saline with Tween-80 93 % of control and 104 % of control | dose: 50.0 mg/kg/injection, schedule: Q04DX002 (ip), vehicle: Klucel (hydroxypropylcellulose) (HPC) 106 % of control | dose: 50.0 mg/kg/injection, schedule: Q04DX002 (ip), vehicle: saline with Tween-80 104 % of control and 105 % of control | dose: 100.0 mg/kg/injection, schedule: Q01DX001 (ip), vehicle: saline with Tween-80 93 % of control and 89 % of control | dose: 100.0 mg/kg/injection, schedule: Q04DX002 (ip), vehicle: Klucel (hydroxypropylcellulose) (HPC) 110 % of control | dose: 200.0 mg/kg/injection, schedule: Q01DX001 (ip), vehicle: saline with Tween-80 100 % of control and 91 % of control | dose: 200.0 mg/kg/injection, schedule: Q04DX002 (ip), vehicle: Klucel (hydroxypropylcellulose) (HPC) 93 % of control and 103 % of control | [2] 96 % of control and 89 % of control | dose: 400.0 mg/kg/injection, schedule: Q04DX002 (ip), vehicle: Klucel (hydroxypropylcellulose) (HPC) 93 % of control | [10] 93 % of control and 89 % of control

COc1ccc(OC)c(C(=S)N2CCOCC2)c1
inactive: [11] 94 % of control | [8] 96 % of control | [12] 102 % of control | [13] 96 % of control | [14] 100 % of control | [15] 96 % of control

C=CC(O)CCCCCC (stereo unspecified)
inactive: [16] 97 % of control | [7] 101 % of control | [9] 95 % of control | [17] 103 % of control

CC1(C)NC(=O)N(CN2CCN(CN3C(=O)NC(C)(C)C3=O)CC2)C1=O
inactive: [4] 108 % of control | [5] 108 % of control | [6] 113 % of control

Nc1nc(-c2ccc(Cl)cc2)c(N=Nc2ccc(Br)cc2)s1
inactive: [1] 104 % of control | [2] 97 % of control | [3] 101 % of control

CC1CCCN(C(=O)CCCCl)C1 (stereo unspecified)
inactive: [18] 96 % of control | [19] 99 % of control | [20] 99 % of control

CCOc1ccc(Cl)cc1Cl
inactive: [18] 109 % of control | [19] 113 % of control | [20] 106 % of control

CC(=O)Nc1cc2cc(Br)ccc2oc1=O
inactive: [21] 95 % of control | [22] 93 % of control

NC1(C(=O)O)CCC(N)(C(=O)O)CC1 (stereo unspecified)
inactive: dose: 75.0 mg/kg/injection, schedule: Q01DX001 (ip), vehicle: saline 110 % of control | dose: 150.0 mg/kg/injection, schedule: Q01DX001 (ip), vehicle: saline 100 % of control

O=C1c2cc(Br)ccc2-c2c(F)cc(Br)cc21
inactive: [16] 105 % of control | [7] 100 % of control | [9] 100 % of control | [17] 94 % of control

Cc1ccc(N2CCN(Cc3ccc4ccccc4c3)CC2)cc1
inactive: [1] 102 % of control | [2] 94 % of control | [3] 100 % of control

CC1CC(C)(C)OC(C(Cl)(Cl)Cl)O1 (stereo unspecified)
inactive: dose: 50.0 mg/kg/injection, schedule: Q01DX009 (ip), vehicle: saline 98 % of control | dose: 100.0 mg/kg/injection, schedule: Q01DX009 (ip), vehicle: saline 93 % of control | dose: 100.0 mg/kg/injection, schedule: Q04DX003 (ip), vehicle: acetone 112 % of control | dose: 200.0 mg/kg/injection, schedule: Q01DX009 (ip), vehicle: saline 93 % of control | dose: 200.0 mg/kg/injection, schedule: Q04DX003 (ip), vehicle: acetone 106 % of control | dose: 400.0 mg/kg/injection, schedule: Q04DX003 (ip), vehicle: acetone 103 % of control

Cc1sc([N+](=O)[O-])cc1[N+](=O)[O-]
inactive: dose: 50.0 mg/kg/injection, schedule: Q01DX009 (ip), vehicle: Klucel (hydroxypropylcellulose) (HPC) 103 % of control | [21] 92 % of control | [8] 97 % of control | [13] 96 % of control

O=C(N/N=C/c1ccccc1Cl)C(O)C(O)C(O)C(O)CO (stereo unspecified)
inactive: dose: 100.0 mg/kg/injection, schedule: Q04DX002 (ip), vehicle: saline with Tween-80 112 % of control | dose: 200.0 mg/kg/injection, schedule: Q04DX002 (ip), vehicle: saline with Tween-80 94 % of control | [10] 94 % of control

CN(CCc1ccccc1)/N=N/c1[nH]ncc1C(N)=O
inactive: [11] 108 % of control | [21] 103 % of control | [8] 105 % of control | [12] 105 % of control | [22] 106 % of control | [13] 97 % of control | [14] 113 % of control | [15] 100 % of control | dose: 600.0 mg/kg/injection, schedule: Q01DX009 (ip), vehicle: Klucel (hydroxypropylcellulose) (HPC) 105 % of control
